Data set [1] deals with T1, Orexin receptor type 2 (Homo sapiens, UniProt O43614).
T1 sequence (O43614 whole entry): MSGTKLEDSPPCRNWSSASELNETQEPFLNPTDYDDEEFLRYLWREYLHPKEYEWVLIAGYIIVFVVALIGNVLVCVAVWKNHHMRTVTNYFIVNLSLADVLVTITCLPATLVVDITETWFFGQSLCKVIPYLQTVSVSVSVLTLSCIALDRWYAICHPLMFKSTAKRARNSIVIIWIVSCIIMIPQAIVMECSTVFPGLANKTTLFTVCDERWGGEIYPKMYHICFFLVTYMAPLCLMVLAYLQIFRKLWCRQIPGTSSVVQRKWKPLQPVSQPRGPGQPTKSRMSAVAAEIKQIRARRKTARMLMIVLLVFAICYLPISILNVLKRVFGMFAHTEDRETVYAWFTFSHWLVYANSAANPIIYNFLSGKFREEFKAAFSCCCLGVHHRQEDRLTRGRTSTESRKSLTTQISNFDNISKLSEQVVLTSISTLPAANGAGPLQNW
The experiment in a line: Antagonist activity at OX2R (unknown origin).

The target in data set [2] is T2, Orexin/Hypocretin receptor type 1 (Homo sapiens, UniProt O43613).
T2 sequence (O43613 whole entry): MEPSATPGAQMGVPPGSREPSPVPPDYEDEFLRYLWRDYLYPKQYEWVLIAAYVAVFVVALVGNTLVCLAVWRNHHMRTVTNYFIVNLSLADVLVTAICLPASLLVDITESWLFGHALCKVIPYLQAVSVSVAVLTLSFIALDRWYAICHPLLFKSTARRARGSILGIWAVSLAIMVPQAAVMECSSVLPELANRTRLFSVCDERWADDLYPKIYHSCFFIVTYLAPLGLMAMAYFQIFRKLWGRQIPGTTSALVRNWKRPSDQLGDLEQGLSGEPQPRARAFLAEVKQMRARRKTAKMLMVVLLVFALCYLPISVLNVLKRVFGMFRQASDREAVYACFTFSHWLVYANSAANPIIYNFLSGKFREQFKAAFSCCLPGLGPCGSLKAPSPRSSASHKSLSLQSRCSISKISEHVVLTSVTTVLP
The experiment in a line: Antagonist activity at OX1R (unknown origin).

Data set [3] concerns the target T1, Orexin receptor type 2. The experiment in a line: Binding affinity to OX2R (unknown origin).
Data set [4] deals with T2, Orexin/Hypocretin receptor type 1. The experiment in a line: Binding affinity to OX1R (unknown origin).
In data set [5] the test system is Rattus norvegicus. Kind of data set: Effect on sleep parameter in po dosed rat by EEG analysis. The class given is functional.
Data set [6] concerns the target T2, Orexin/Hypocretin receptor type 1. Kind of data set: Antagonist activity at human OX1R expressed in CHO cell membranes assessed as inhibition of orexin-A-induced intracellular calcium release after 120 mins. The class given is functional, cell-based. In general terms: A change in cytosolic calcium serves as a functional read-out for many receptors and channels.

A short description of data set [7]: Plasma protein binding in human. The data set is classed as ADME, cell-free. As to conditions: read-out: PPB (converted).
Data set [8] is described as follows: Plasma protein binding in rat. The class given is ADME, cell-free. The settings on record: read-out: PPB (converted).
Data set [9] in a line: Plasma protein binding in dog. The class given is ADME, cell-free, Canis lupus familiaris. The settings on record: read-out: PPB (converted).
For data set [10], the species on record is Rattus norvegicus. Kind of data set: Receptor occupancy at OX2R in rat brain assessed as drug level in plasma. The data set is classed as functional.
Data set [11] in a line: Clearance in iv dosed rat. The class given is ADME, organism-based. As to conditions: in vivo.
A short description of data set [12]: Half life in iv dosed rat. The data set is classed as ADME, organism-based. The settings on record: in vivo.
Data set [13] can be described thus: Clearance in iv dosed dog. As to conditions: in vivo. The class given is ADME, organism-based, Canis lupus familiaris.
The nature of data set [14]: Half life in iv dosed dog. The settings on record: in vivo. The data set is classed as ADME, organism-based, Canis lupus familiaris.
Data set [15] is described as follows: Oral bioavailability in rat. The class given is ADME, organism-based. As to conditions: in vivo.
Data set [16] is described as follows: Oral bioavailability in dog. The data set is classed as ADME, organism-based, Canis lupus familiaris. The settings on record: in vivo.
The subject of another data set is Canis familiaris. The experiment in a line: Effect on sleep parameter in po dosed dog by EEG analysis. The data set is classed as functional, Canis lupus familiaris.
For data set [17], the target named is T1, Orexin receptor type 2. The experiment in a line: Antagonist activity at human OX2R expressed in CHO cell membranes assessed as inhibition of orexin-A-induced intracellular calcium release after 120 mins. The data set is classed as functional, cell-based.
Data set [18] can be described thus: Ratio of drug level in CSF to plasma in rat. The class given is ADME, cell-free.
Data set [19] can be described thus: Ratio of drug level in brain to plasma in rat. The class given is ADME, cell-free. As to conditions: read-out: BPR.
For data set [20], the species on record is Homo sapiens. The experiment in a line: Selectivity ratio of IC50 for OX2R (unknown origin) to IC50 for OX1R (unknown origin).
The target in data set [21] is T3, Orexin receptor type 2 (Homo sapiens) (UniProt O43614).
T3 sequence (whole entry): T1 sequence (O43614 whole entry)

For data set [22], the species on record is Homo sapiens. Kind of data set: Apparent half life of the compound in human. The data set is classed as ADME, organism-based. The settings on record: in vivo.
Data set [23] has as its target T2, Orexin/Hypocretin receptor type 1. Kind of data set: Antagonist activity at human OX1R expressed in CHO cells assessed as inhibition of orexin-A-induced intracellular calcium release by FLIPR assay. The data set is classed as functional, cell-based.
The next data set deals with Cytochrome P450 3A4 (Homo sapiens, UniProt P08684). The experiment in a line: Inhibition of CYP3A4 (unknown origin). The data set is classed as ADME.
Data set [24] has as its target T1, Orexin receptor type 2. Kind of data set: Antagonist activity at human OX2R expressed in CHO cells assessed as inhibition of orexin-A-induced intracellular calcium release by FLIPR assay. The class given is functional, cell-based.

Molecules are shown by their SMILES.

Cytochrome P450 3A4, sequence (P08684 whole entry): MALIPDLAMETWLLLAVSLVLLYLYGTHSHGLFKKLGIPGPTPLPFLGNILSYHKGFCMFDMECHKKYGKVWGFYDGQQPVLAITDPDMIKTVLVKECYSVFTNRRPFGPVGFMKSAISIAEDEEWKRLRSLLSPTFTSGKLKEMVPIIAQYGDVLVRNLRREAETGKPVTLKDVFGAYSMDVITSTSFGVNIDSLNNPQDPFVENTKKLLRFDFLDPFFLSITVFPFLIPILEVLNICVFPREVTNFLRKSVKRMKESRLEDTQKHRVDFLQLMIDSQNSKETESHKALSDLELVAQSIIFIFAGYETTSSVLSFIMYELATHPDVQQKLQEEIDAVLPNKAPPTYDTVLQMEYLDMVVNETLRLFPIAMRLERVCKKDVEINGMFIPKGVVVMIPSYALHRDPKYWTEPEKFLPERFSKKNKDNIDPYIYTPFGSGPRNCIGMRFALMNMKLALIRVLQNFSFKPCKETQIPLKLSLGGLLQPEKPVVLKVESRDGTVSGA

In general, IC50 refers to the concentration at which inhibition is half-maximal. As for `Cc1nc(C(=O)N2CCCC[C@H]2CCOc2ccc(F)cc2)c(-c2ccccc2)s1`, the results for the IC50 (on Orexin receptor type 2 [1]; in data set [2]) were 0.014 µM and 0.012 µM, respectively.
The Ki is the equilibrium dissociation constant of an inhibitor or competing ligand from its target. Take `Cc1ccc(-n2nccn2)c(C(=O)N2C[C@H](COc3ccc(F)c(C)c3)CC[C@H]2C)c1` (racemic): the Ki on Orexin receptor type 2 [3] was 0.0001 µM; in [4], 0.0003 µM.
The corresponding values for `Cc1nc(C(=O)N2CCCCC2CCOc2ccc(F)cc2)c(-c2ccccc2)s1` (centres undefined) are 0.004 µM and 0.008 µM.
In the case of `Cc1ccc(-n2nccn2)c(C(=O)N2CCCC(COc3ccc(F)c(C)c3)C2)c1` (centres undefined), the Ki is 0.016 µM on Orexin receptor type 2 [3] and 0.015 µM in data set [4].
Regarding `CCN(CCN(C)c1nc2ccccc2o1)C(=O)c1cc(C)ccc1-n1nccn1`, the 50% inhibitory concentration (IC50) worked out at 0.018 µM at Orexin receptor type 2 [1] and 0.013 µM in data set [2].
One may read the clearance as the volume of plasma or blood freed of the substance per unit of time. Lower therefore signals inefficient removal. In general, half-life refers to the time in which the quantity being followed falls by half. High values mean slow decline, low ones rapid decline. One may read the bioavailability as the share of a dose that reaches the circulation, judged against a reference dose that is usually intravenous. Lower therefore signals little systemic uptake. Regarding `Cc1ccc(-c2ncccn2)c(C(=O)N2C[C@H](COc3ccc(F)cn3)CC[C@H]2C)c1` [FILOREXANT], the Activity in the data set with Rattus norvegicus [5] was 3 mg/kg; in the data set with Canis familiaris it was 0.25 mg/kg. Besides, the 50% inhibitory concentration (IC50) (in data set [6]; on Orexin receptor type 2 [17]) was 0.011 µM each time. In addition, the fraction unbound in data set [7] is 0.025; in [8], 0.05; in data set [9] it was 0.06. Also, in data set [4], affinity was put at a Ki of 0.0022 µM. Besides, the Occ90 in the data set listed under Rattus norvegicus [10] is 142 nM. Besides, the clearance turned out to be 67 mL/min/kg in data set [11] and 5.8 mL/min/kg in data set [13]. Moreover, the figures for the half-life in data set [12] and in [14] were 0.5 h and 2.3 h, respectively. Besides, the bioavailability in data set [15] amounted to 25%; in [16], 26%. The Kp in [18] stood at 0.04; in data set [19] it was 1.1.
On to `COc1ccc(CC2c3cc(OC)c(OC)cc3CCN2CC(=O)NCc2ccccc2)cc1OC` (centres undefined), for which the Ratio IC50 in the data set listed under Homo sapiens [20] was 68.
Take `COc1cccc(OC)c1C(=O)N1CCCN(c2nc3ccc(Cl)cc3s2)CC1`: the IC50 in [2] came out at 0.63 µM.
For orientation: pKb means the Kb on a negative log10 scale, so that one unit is a factor of ten. Lower therefore signals a high Kb. Take `CC1(C)OC[C@H](NC(=O)Nc2ccc(Br)cc2Br)[C@H](c2ccccc2)O1`: the negative logarithm of the Kb (pKb) in data set [21] turned out to be 8.3.
`Cc1ccc(-n2nccn2)c(C(=O)N2C[C@@H](COc3ccc(F)c(C)c3)CC[C@H]2C)c1` (racemic): the inhibition constant Ki on Orexin receptor type 2 [3] is 0.022 µM; in data set [4], 0.034 µM.
In the case of `Cc1nc(C(=O)N2CCCC[C@H]2CNC(=O)c2cccc3occc23)c(-c2ccc(F)cc2)s1` (stereo in doubt; form 2) [SB-649868], in the data set listed under Homo sapiens [22], the “t1/2(app)” value worked out at 39 h.
As for `COc1ccc(CC2c3cc(OC(C)C)c(OC)cc3CCN2CC(=O)NCc2ccccc2)cc1OC` (centres undefined), the results for the IC50 (against Orexin receptor type 2 [1]; in data set [2]) were above 10 µM and 0.017 µM, respectively.
Turning to `CSc1cccc(NC(=O)[C@@H]2CCCN2S(=O)(=O)c2ccc(Br)s2)c1`, the IC50 in [23] was 0.021 µM.
For the molecule `COc1ccc(S(=O)(=O)N2CCC[C@H]2C(=O)Nc2cccc(SC)c2)cc1`, the IC50 came out at 8 µM on Cytochrome P450 3A4, 0.031 µM in [23] and 0.007 µM on Orexin receptor type 2 [24].

For the origin of these results see ChEMBL document CHEMBL3769367, “Orexin Receptor Antagonists: New Therapeutic Agents for the Treatment of Insomnia” (J Med Chem, 2016).
